US9353082B2, “Pharmaceutical compounds” (BIAL—PORTELA & CA, S.A., priority 2008, dated 2016)

Biological target: T1, FAAH (Rattus norvegicus, UniProt P97612)
T1 construct: Frozen brains (without cerebellum) from Wistar rats were used; from tissue; host or cells: Wistar rat brain (without cerebellum), washed membrane pellets
T1 sequence (P97612 1-579): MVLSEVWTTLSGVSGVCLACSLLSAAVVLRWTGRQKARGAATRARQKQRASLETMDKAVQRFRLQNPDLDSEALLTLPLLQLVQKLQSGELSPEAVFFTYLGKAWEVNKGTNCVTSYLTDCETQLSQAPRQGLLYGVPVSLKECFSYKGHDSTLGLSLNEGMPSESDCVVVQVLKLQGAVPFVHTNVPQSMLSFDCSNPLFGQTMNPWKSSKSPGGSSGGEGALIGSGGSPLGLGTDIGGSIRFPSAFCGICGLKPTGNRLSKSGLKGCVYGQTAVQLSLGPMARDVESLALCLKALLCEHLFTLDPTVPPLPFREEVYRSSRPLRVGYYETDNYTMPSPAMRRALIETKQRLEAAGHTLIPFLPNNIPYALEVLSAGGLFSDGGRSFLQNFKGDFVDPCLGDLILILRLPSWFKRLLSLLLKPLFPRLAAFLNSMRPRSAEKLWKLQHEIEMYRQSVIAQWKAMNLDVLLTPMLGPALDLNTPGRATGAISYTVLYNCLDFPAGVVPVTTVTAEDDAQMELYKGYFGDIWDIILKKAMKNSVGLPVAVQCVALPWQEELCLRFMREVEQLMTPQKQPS
Experiment: In vitro FAAH activity in rat brain membranes, 3H-AEA substrate, % of control
Format: biochemical, Wistar rats
Conditions: 100 nM test compound, low value = strong inhibitor
Experimental: 3. Biological Efficacy of Compounds of the Invention The in vitro test was performed according to the protocol described below. The controls for both in vitro and in vivo were the reaction mix minus the test compounds. Therefore, a low value in Table 1 below for the test compounds indicates a strong inhibitor.
The in vitro pharmaceutical FAAH activity was determined according to the following method:
Frozen brains (without cerebellum) from Wistar rats were used, and each brain was homogenized in 15 ml 1 mM MgCL2, […] HEPES pH 7.0 with Potter Elvejhem (8 strokes at 500 rpm). Homogenates were centrifuged for 20 min at 36000 g at 4° C. (Beckman, 70Ti rotor). Pellets were resuspended in 15 ml of the same buffer and centrifuged under the same conditions. Pellets were resuspended in 15 ml of the same buffer and incubated for 15 min at 37° C. after which they were centrifuged for 20 min at 36000 g at 4° C. Each pellet was then resuspended in 15 ml 3 mM MgCl2, 1 mM EDTA, 50 mM Tris pH 7.4 and protein determined with BioRad Protein Assay (BioRad) using a standard curve of BSA (50-250 μg/ml). The membrane suspensions were aliquoted and stored at −80° C.
The FAAH activity was determined using AEA (labelled with 3H in the ethanolamine part of the molecule) as substrate and measuring the 3H-ethanolamine formed. Reaction mix (total volume of 200 up contained: 2 μM AEA (2 μM AEA+5 nM 3H-AEA), 0.1% fatty acid free BSA, 5 μg protein, in 1 mM EDTA, 10 mM Tris pH 7.6 and 10 μM or 0.1 μM compounds. Stock solutions of the compounds to test (10 mM) were prepared in 100% DMSO and the DMSO concentration in the assay was 0.1%. After a 15 min preincubation period at 37° C., reaction was started by the addition of the substrate solution ([…]). Reaction was carried out for 10 min before termination by the addition of 400 μl activated charcoal suspension (8 g charcoal in 32 ml 0.5 M HCl in continuous agitation). After a 30 min incubation period at room temperature with agitation, charcoal was sedimented by centrifugation in microfuge (10 min at 13000 rpm). 200 μl of the supernatant were added to 800 μl Optiphase Supermix scintillation cocktail previously distributed in 24-well plates. Counts per minute (cpm) were determined in Microbeta TriLux scintillation counter (10 min counting or until s=2).
In each assay blanks (no protein, usually below 200 cpm) and controls (no compound) were present. The results are reported in Table 1 as % of control after blank subtraction.

Row | In Vitro FAAH activity, 100 nM | Structure (SMILES)
1 | 104.3 % of control | O=C(N1CCOCC1)n1ccc2cc(F)ccc21 [Compound 46, (5-fluoro-1H-indol-1-yl)(morpholino)methanone]
2 | 97.2 % of control | COc1ccc2c(ccn2C(=O)N2CCOCC2)c1 [Compound 47, (5-methoxy-1H-indol-1-yl)(morpholino)methanone]
3 | 102.7 % of control | O=C(N1CCOCC1)n1ccc2cc(O)ccc21 [Compound 52, (5-hydroxy-1H-indol-1-yl)(morpholino)methanone]
4 | 91 % of control | CN(C(=O)n1cnc(-c2ccc(O)cc2)c1)c1ccc(F)cc1 [Compound 54, N-(4-fluorophenyl)-4-(4-hydroxyphenyl)-N-methyl-1H-imidazole-1-carboxamide]
5 | 90.7 % of control | O=C(Nc1ccc(Oc2ccccc2)cc1)n1nnc2ccccc21 [Compound 56, N-(4-phenoxyphenyl)-1H-benzo[d][1,2,3]triazole-1-carboxamide]
6 | 96.9 % of control | COc1ccc(NC(=O)n2nnc3ccccc32)cc1 [Compound 57, N-(4-methoxyphenyl)-1H-benzo[d][1,2,3]triazole-1-carboxamide]
7 | 100.4 % of control | O=C(Nc1ccc(F)cc1F)n1nnc2ccccc21 [Compound 59, N-(2,4-difluorophenyl)-1H-benzo[d][1,2,3]triazole-1-carboxamide]
8 | 93.8 % of control | O=C(Nc1ccccc1)n1nnc2ccccc21 [Compound 60, N-phenyl-1H-benzo[d][1,2,3]triazole-1-carboxamide]
9 | 93.7 % of control | O=C(Nc1ccc(Cl)cc1)n1nnc2ccccc21 [Compound 62, N-(4-chlorophenyl)-1H-benzo[d][1,2,3]triazole-1-carboxamide]
10 | 67.9 % of control | COc1ccc(-c2ncn(C(=O)N(C)c3ccccc3)n2)cc1 [Compound 64, 3-(4-methoxyphenyl)-N-methyl-N-phenyl-1H-1,2,4-triazole-1-carboxamide]
11 | 86.5 % of control | COc1ccc(-c2ncn(C(=O)N3CCOCC3)n2)cc1 [Compound 65, (3-(4-methoxyphenyl)-1H-1,2,4-triazol-1-yl)(morpholino)methanone]
12 | 80.9 % of control | COc1ccc(-c2ncn(C(=O)N(C)c3ccc(F)cc3)n2)cc1 [Compound 66, N-(4-fluorophenyl)-3-(4-methoxyphenyl)-N-methyl-1H-1,2,4-triazole-1-carboxamide]
13 | 61 % of control | CN(C(=O)n1cnc(-c2ccc(Cl)cc2)n1)c1ccccc1 [Compound 67, 3-(4-chlorophenyl)-N-methyl-N-phenyl-1H-1,2,4-triazole-1-carboxamide]
14 | 73.5 % of control | O=C(N1CCOCC1)n1cnc(-c2ccc(Cl)cc2)n1 [Compound 68, (3-(4-chlorophenyl)-1H-1,2,4-triazol-1-yl)(morpholino)methanone]
15 | 80.8 % of control | CN(C(=O)n1cnc(-c2ccc(Cl)cc2)n1)c1ccc(F)cc1 [Compound 69, 3-(4-chlorophenyl)-N-(4-fluorophenyl)-N-methyl-1H-1,2,4-triazole-1-carboxamide]
16 | 87.6 % of control | O=C(N1CCOCC1)n1nc(Cl)c2ccccc21 [Compound 72, (3-chloro-1H-indazol-1-yl)(morpholino)methanone]
17 | 85.8 % of control | O=C(N1CCOCC1)n1cnc(-c2ccccc2)n1 [Compound 73, morpholino(3-phenyl-1H-1,2,4-triazol-1-yl)methanone]

Row | In Vitro FAAH activity, 100 nM | Structure (SMILES)
18 | 73.2 % of control | CN(C(=O)n1cnc(-c2ccccc2)n1)c1ccc(F)cc1F [Compound 74, N-(2,4-difluorophenyl)-N-methyl-3-phenyl-1H-1,2,4-triazole-1-carboxamide]
19 | 97.1 % of control | CN(C(=O)n1nnc2ccccc21)c1ccc(N2CCOCC2)cc1 [Compound 76, N-methyl-N-(4-morpholinophenyl)-1H-benzo[d][1,2,3]triazole-1-carboxamide]
20 | 76.3 % of control | COc1cc(OC)cc(N(C)C(=O)n2nnc3ccccc32)c1 [Compound 77, N-(3,5-dimethoxyphenyl)-N-methyl-1H-benzo[d][1,2,3]triazole-1-carboxamide]
21 | 81.9 % of control | O=C(N1CCOCC1)n1cnc(-c2ccc(F)cc2F)n1 [Compound 78, (3-(2,4-difluorophenyl)-1H-1,2,4-triazol-1-yl)(morpholino)methanone]
22 | 89.5 % of control | CN(C(=O)n1cnc(-c2ccc(F)cc2F)n1)c1ccc(F)cc1F [Compound 80, N,3-bis(2,4-difluorophenyl)-N-methyl-1H-1,2,4-triazole-1-carboxamide]
23 | 49.2 % of control | CN(C)c1ccc(N(C)C(=O)n2nnc3ccccc32)cc1 [Compound 81, N-(4-(dimethylamino)phenyl)-N-methyl-1H-benzo[d][1,2,3]triazole-1-carboxamide]
24 | 69.3 % of control | Cl.O=C(N1CCC(N2CCCCC2)CC1)n1nnc2ccccc21 [Compound 82, 1,4′-bipiperidin-1′-yl(1H-benzo[d][1,2,3]triazol-1-yl)methanone hydrochloride]
25 | 2.5 % of control | CN1CCN(C(=O)n2nnc3ccccc32)CC1.Cl [Compound 83, (1H-benzo[d][1,2,3]triazol-1-yl)(4-methylpiperazin-1-yl)methanone hydrochloride]
26 | 62.5 % of control | CN(C(=O)n1nnc2ccccc21)c1ccccn1 [Compound 84, N-methyl-N-(pyridin-2-yl)-1H-benzo[d][1,2,3]triazole-1-carboxamide]
27 | 0 % of control | CCCCCCCCCCCCNC(=O)n1nnc2ccccc21 [Compound 86, N-dodecyl-1H-benzo[d][1,2,3]triazole-1-carboxamide]
28 | 105.4 % of control | O=C(Nc1ccc(-c2ccccc2)cc1)n1nnc2ccccc21 [Compound 88, N-(biphenyl-4-yl)-1H-benzo[d][1,2,3]triazole-1-carboxamide]
29 | 4.5 % of control | O=C(N1CCOCC1)n1cc(-c2ccccc2)nn1 [Compound 89, morpholino(4-phenyl-1H-1,2,3-triazol-1-yl)methanone]
30 | 38.6 % of control | Cl.O=C(N1CCC(N2CCOCC2)CC1)n1nnc2ccccc21 [Compound 90, (1H-benzo[d][1,2,3]triazol-1-yl)(4-morpholinopiperidin-1-yl)methanone hydrochloride]
31 | 0 % of control | O=C(N1CCN(c2ccc(OCc3ccccc3)cc2)CC1)n1nnc2ccccc21 [Compound 91, (1H-benzo[d][1,2,3]triazol-1-yl)(4-(4-(benzyloxy)phenyl)piperazin-1-yl)methanone]
32 | 96 % of control | Cl.O=C(N1CCC(N2CCCC2)CC1)n1nnc2ccccc21 [Compound 92, (1H-benzo[d][1,2,3]triazol-1-yl)(4-(pyrrolidin-1-yl)piperidin-1-yl)methanone hydrochloride]
33 | 0 % of control | Cl.O=C(N1CCN(Cc2ccccc2)CC1)n1nnc2ccccc21 [Compound 93, (1H-benzo[d][1,2,3]triazol-1-yl)(4-benzylpiperazin-1-yl)methanone hydrochloride]
